From patent publication US20150297761A1, “PEPTIDIC STRUCTURES INCORPORATING AN AMINO ACID METAL COMPLEX AND APPLICATIONS IN MAGNETIC RESONANCE IMAGING” (THE GENERAL HOSPITAL CORPORATION, priority 2012, published 2015)
Where two headings read alike, the source gives them in different places. One block for each compound: values may come before it.

Columns and labels:
[1] = cited from earlier work
[2] = Relaxivity of Gd(DOTAla) metallopeptides and reference agents (T1 inversion recovery, 37° C.); type: physicochemical
Experimental: Main numbers are given per Gd, numbers in parentheses are per molecule values. All numbers were determined at 37° C. using an inversion recovery sequence at concentrations ranging from 0.05 to 0.6 mM/Gd. Table 4 in Example 2 further expands the data of Table 1.
Per Gd relaxivities were determined by measuring T1 at 37° C. using 20, 60, 200, 400 and 500 MHz spectrometers. Relaxivities for MS-325 (with and without the presence of HSA) as a reference compound with a long τR and [Gd(HP-DO3A)(H2O)] as a reference for very short τR were also measured, and all the relaxivity data is tabulated in Table 4, together with results obtained from literature for the compounds with similar estimated τR. […] Additional rigidity through cyclization seems to provide only minor relaxivity increase for the dimeric and trimeric systems (Gd2C2 and Gd3C3).
Measurement of relaxivity. Longitudinal relaxation times T1, were measured on Bruker Minispecs mq20 (0.47 T) and mq60 (1.41 T), a Bruker Bioscan horizontal bore 4.7 T, 9.4 T and 11.7 T Varian NMR spectrometers. T1 was measured by using an inversion recovery method with 10 inversion time values ranging from 0.05×T1 to 5×T1. Relaxivity was calculated from a linear plot of 3 or 4 different concentrations (ranging from 0.01 to 0.5 mM, depending on amount of compound isolated) versus the corresponding inverse relaxation times. All samples were measured at 37° C. using either the internal temperature control of the instrument (0.47, 1.41, 9.4 and 11.7 T) or a warm air blower (4.7 T). MS-325/HSA was prepared in a 4.5% w/v solution of HSA (0.66 mM) in PBS. The MS-325 concentration (in presence of HSA) ranged from 0.05 to 0.15 mM.

[3] = hydration state; literature (superscript refs); cited from earlier work
[4] = buffer, pH 3
Experimental: For comparison, we also measured transchelation from the approved contrast agents [Gd(HP-DO3A)(H2O)] (ProHance, gadoteridol) and [Gd(DTPA)(H2O)]^2− (Magnevist, gadopentetate). […] We estimated half-times for these transchelations (time to 50% of the equilibrium value).
Stock solutions of MS-325-L and GdL1, Gd2L2 and Gd3L3 were prepared in 50 mM citrate buffer at pH 3.0. MS-325-L was added to solutions of the Gd complexes and incubated at 37° C. The final concentrations of the metal complexes were 0.1 mM, while the concentration of MS-325-L was adjusted according to the amounts of Gd complexes per metallopeptide present. A 10 μL aliquot was removed for HPLC analysis and analyzed while the remainder of the solution was incubated at 37° C.

[5] = Relaxometry of [Gd(CyPic3A)(H2O)2]− in different media; type: physicochemical
Experimental: The relaxivity of [Gd(CyPic3A)(H2O)2]^− is consistent with two inner-sphere water ligands. At 310 K in pH 7.4 50 mM HEPES buffer, r1=5.70 mM^−1 s^−1 at 1.41 T (7.53 mM^−1s^−1 at 298 K). This is 75% higher than [Gd(DTPA)(H2O)]^2− measured under these conditions (see below for detailed table of r1 values). To probe the effects of potentially coordinating anions, nwas measured in the presence of 20 equiv. carbonate or L-lactate and also in 25 mM phosphate buffer (pH 7.4).
Relaxivity measurements were performed on a Bruker mq60 or Bruker mq20 Minispec at 1.41 T and 0.47 T, respectively, and 37° C. Longitudinal (T1) relaxation was acquired via an inversion recovery experiment on 10 inversions of duration ranging between 0.05×T1 and 5×T1. Relaxivity (r1) was determined from the slope of a plot of 1/T1 vs. [Gd] for at least 4 concentrations of Gd(III). The transverse (T2) relaxation times of ^17O were acquired at 500 MHz using a CPMG pulse sequence at temperatures ranging from 278 to 368 K. Reduced relaxation rates (1/T2r) were calculated by dividing the [Gd(CyPic3A)(H2O)2]^− imparted increase in 1/T2 relative to neat H2O at pH 3 by the mole fraction of coordinated water molecules.

[6] = Kinetic inertness: Zn(II) transmetallation in phosphate buffer, followed by 1/T1; type: physicochemical
Text: Kinetic inertness was also taken into account in the evaluation of potential probes. In this regard, [Gd(CyPic3A)(H2O)2]^− was challenged with 1 equiv. [ZnPO4]^− as a slurry in pH 7.0 phosphate buffer at 310 K (see below). Several clinically utilized Gd(III) complexes have been benchmarked relative to one another in this manner.^37 As Gd(III) replaced by Zn(II) precipitates from the solution as GdPO4, the relaxation rate 1/T1 decreases. In this method, the time required to reach 80% of the initial 1/T1 value was utilized as an index of kinetic inertness.
Modified conditions of Muller and co-workers were used for this experiment.^11,12 Solutions containing 2.5 mM [Gd(CyPic3A)(H2O)2]^− and 2.5 mM Zn(OTf)2 were combined in pH 7.0 phosphate buffer (50 mM) and placed in an incubator shaker set to 310 K. Progress of the transchelation was monitored via the decrease in 1/T1 with time. Prior to measurement, aliquots were placed in small glass inserts and centrifuged to bring all insoluble material to the bottom so as not to interfere with the measurement.

[7] = Ligand challenge, equilibrium constant Kcomp of [Gd(DTPA)(H2O)]2− vs. L; type: physicochemical; conditions: obtained through ligand challenge
[8] = Ligand challenge, equilibrium constant Kcomp of MS-325 vs. L; type: physicochemical; conditions: obtained through ligand challenge
Experimental: (§1) Equilibration of each solution was monitored by LC-MS. Relative distributions of [Gd(CyPic3A)(H2O)2]^− and CyPic3A were determined by integrating the corresponding absorbance traces at 280 nm. […] Kcomp values determined between [Gd(DTPA)(H2O)]^2− and various ligands were determined from conditional formation constants (Kcond)^4 values taken from the literature.^6-16 Direct comparisons were only made between Kcond values determined under identical conditions.

[9] = Ligand challenge, equilibrium constant Kcomp of [Gd(DTPA)(H2O)]2− vs. L; type: physicochemical; conditions: pH 7.4
Experimental: As a means of assessing thermodynamic stability relative to other Gd(III)-complexes, [Gd(CyPic3A)(H2O)2]^− was challenged with DTPA in pH 7.4 25 mM Tris buffer. […] From this information it was possible to deduce equilibrium constants (Kcomp) for the competition reaction described in Equation 5,^31 where L=DTPA and L′=challenging chelator.
as §1

[10] = 0.47 T, 310 K, literature (superscript refs)

Compound: CC(O)CN1CCN(CC(=O)[O-])CCN(CC(=O)[O-])CCN(CC(=O)[O-])CC1.[Gd+3] (stereo not shown) [[Gd(HP-DO3A)(H2O)], gadoteridol, reference compound]
r1 0.47 T 310K [1, 10]: 3.1^17 mM^−1s^−1 | r1 1.41 T 310K ([1]; cell says 1.5 T, 310 K, literature (ref 17)): 2.9 (1.5 T)^17 mM^−1s^−1 | Relaxivity per Gd, 20 MHz ([2]; 20 MHz): 4.3 mM⁻¹ s⁻¹ | Relaxivity per Gd, 60 MHz ([2]; 60 MHz): 3.2 mM⁻¹ s⁻¹ | Relaxivity per Gd, 200 MHz ([2]; 200 MHz): 3.6 mM⁻¹ s⁻¹ | Relaxivity per Gd, 400 MHz ([2]; 400 MHz (9.4 T)): 3.0 mM⁻¹ s⁻¹ | Relaxivity per Gd, 500 MHz ([2]; 500 MHz): 2.9 mM⁻¹ s⁻¹ | r1 [0.47 T], per Gd ([2]; per Gd, 0.47 T): 4.33 mM⁻¹ s⁻¹ | r1 [1.4 T], per Gd ([2]; per Gd, 1.4 T): 3.21 mM⁻¹ s⁻¹ | r1 [9.4 T], per Gd ([2]; per Gd, 9.4 T): 3.03 mM⁻¹ s⁻¹ | r1 [11.7 T], per Gd ([2]; per Gd, 11.7 T): 2.94 mM⁻¹ s⁻¹ | q [3]: 1^16 | t1/2 [h], Gd transchelation to MS-325 [4]: 91 ± 6 h

r1 1.41 T 310K [5]: 3.26 mM⁻¹ s⁻¹ | r1 ([5]; 1.41 T, 310 K, pH 7.4 50 mM HEPES buffer): 3.26 mM⁻¹ s⁻¹ | time to 80% of the initial 1/T1 ([6]; 1 equiv. Zn(II), pH 7.0 phosphate buffer, 310 K): 383 min | t1/2 [h], Gd transchelation to MS-325 [4]: 0.42 ± 0.18 h
Compound: O=C([O-])CN(CCN(CC(=O)[O-])CC(=O)O)CCN(CC(=O)[O-])CC(=O)O.[Gd+3] [[Gd(DTPA)(H2O)]^2−, gadopentetate]
r1 0.47 T 298K ([1]; 0.47 T, 298 K, literature (superscript refs)): 4.3^16 mM^−1s^−1 | r1 0.47 T 310K [1, 10]: 3.4^17 mM^−1s^−1 | q [3]: 1^16

Time to 80% r1 ([6]; Zn(II) challenge of the Gd(III) complex of L, this work): 95 min | Kcomp [Gd(DTPA)(H2O)]^2- vs. L pH 4 [7]: 0.18 | Kcomp MS-325 vs. L pH 4 ([8]; pH 4): 0.031 | Kcomp MS-325 vs. L pH 7.4 ([8]; pH 7.4): 0.56 | affinity for Gd(III) lower than DTPA [9]: about 5 fold
Compound: N-((6-methylpicol-2-yl)methyl)-N,N′,N′-triacetate-trans-1,2-diaminocyclohexane [CyPic3A]
